Measurements from publication PMC11887370, “The universal accumulation of p-aminophenol during the microbial degradation of analgesic and antipyretic acetaminophen in WWTPs: a novel metagenomic perspective” (Microbiome, 2025).

Columns and labels:
Experiment in all cases: UV-vis spectrophotometric hydrolysis assay, Michaelis-Menten fit
ApaA = tested on: T1, ApaA; type: biochemical, Rhodococcus sp. NyZ502; settings: 100 mM phosphate buffer pH 7.4; 30 °C
T1 construct: His6-tagged, plasmid pTIP-apaA (pTIPQC1), expressed in Rhodococcus erythropolis L88, Ni-NTA purified

[1] = substrate: CC(=O)Nc1ccc([N+](=O)[O-])cc1; type: biochemical, bacterium CSBL00001; settings: 100 mM phosphate buffer pH 7.4, 30 °C
[2] = substrate: CC(=O)Nc1ccc(O)cc1; type: biochemical, bacterium CSBL00001; settings: 100 mM phosphate buffer pH 7.4, 30 °C

Molecule	Km (ApaA)	Km [1]	kcat [1]	Km [2]
CC(=O)Nc1ccccc1 [acetanilide]	30.2 ± 3.86 µM			
CC(=O)Nc1ccc([N+](=O)[O-])cc1 [4-nitroacetanilide]	26.6 ± 4.21 µM			
CC(=O)Nc1ccc(O)cc1 [Acetaminophen]	8.96 µM			
AAA (bacterium CSBL00001) (protein, His6-tagged, plasmid pET-aaa (pET-28a(+)), expressed in E. coli BL21(DE3), Ni-NTA purified) MGKSHSPVHWKSAAEIVELVKSKQISPREVVESTIDLIEQRDPGLNAVVYKAYDEAREKAAALERRIMQGEPVGMLAGVPTLMKDLFAAKPGWPSTLGGIRALKDARGAAGVWSTYPLKMSGEDSLLLGQTNSPVYGFRGTTDNTFFGPTRNPFNLDFNAGGSSGGAAALVADGIVPVAGGTDGGGSIRIPAAWTNTYGFQPSIGRVPFKSRPNAFHPGPYLYEGPITRTVRDAALAMNVLHGFDRRDPASLRVKLDFTSALAQGVRGKKIGLTLNYGVFPVQQEIQDLIGKAARVFTELGAHVEFVDLGIPYSQKQMSDAWCRMIAIPTVASMQALRKEGIDLYGEHRADIPDALMKWIDAVADISVQQISADQLLRTTVFDCMNGVFDRFDLLLAPTLACMPVRNATDGCTEGPSQINGEEIDPLIGWCMTYLTNFSGHPSASVPAGLIDGLPAGMLIIGDRQADLDVIAASAAFERASPWSQYYDIPAGRPL		16.82 ± 5.55 µM	5.65 ± 0.54 s⁻¹	22.13 µM
